Patent US4649139A, “1,2,4-triazines” (Burroughs Wellcome Co., priority 1983, dated 1987)

What was measured:
[1] = tested on: guinea-pig right ventricular muscle; assay: Guinea-pig right ventricular muscle preparation (Vmax of phase 0 of the action potential); type: cell-based, male guinea-pigs; conditions: Cavia porcellus; stimulated at 1 Hz; 0 to 3×10^-4 M in modified Tyrodes solution; read-out: EC50 (50% reduction in Vmax)
Text: Guinea-pig right ventricular muscle preparation: (Campbell, Brit.J.Pharmac., 1982, 77, 541-548)
Strips of right ventricle excised from male guinea-pigs were electrically stimulated at a frequency of 1 Hz with punctate, bipolar silver wire electrodes.

[2] = tested on: aconitine-induced ventricular arrhythmias in anaesthetised rats; assay: animal or person; type: in vivo, Male Wistar rats; conditions: for % decrease in DBP: resting diastolic blood pressure; for amount of aconitine required to elicit ventricular arrhythmia (in words): pretreatment i.v., versus control animals
Description: Male Wistar rats weighing 200-300 g were used. Anaesthesia was induced with a halothane:air mixture and maintained by intravenous administration of a chloralose/pentobarbitone sodium mixture (3 mg/ml pentobarbitone sodium+9.5 mg/ml chloralose) after insertion of a femoral vein cannula. A tracheal cannula was inserted and the animal was respired via a Palmer small animal respiration pump (72 strokes/min and approx 1 ml/100 g). Rectal temperature was thermostatically maintained at 37° C. throughout the experiment. Cannulae were placed in a jugular vein for administration of aconitine and a carotid artery for continuous measurement of blood pressure. Subdermal needle electrodes were inserted for the recording of electrocardiograms throughout the experiment.
When the blood pressure of the animal had stabilised for 10-15 minutes, aconitine (dissolved in distilled water+HCl and diluted in 5% dextrose) was infused via the jugular vein cannula at a rate of 1 μg/min (0.03 mls/min). The total dose of aconitine required to produce ventricular tachycardia or ventricular fibrillation (VT/VF) of at least 1 sec duration was taken as the endpoint of the assay.
Anti-arrhythmic activity was assessed by pretreating animals randomly with drug or vehicle 15 mins prior to aconitine infusion and comparing the dose of aconitine necessary to induce ventricular arrhythmias in treatment groups with that of control groups. The compounds in accordance with the invention were administered as the mesylate or hydrochloride salt prepared immediately before use in a 5% dextrose solution. All drugs were administered via a femoral venous cannula in a dose volume of 0.5 ml.

beagle dogs = assay: Toxicity in dogs, daily administration for 14 days; conditions: two to three times the effective dose, daily for 14 days
Stability of the base = type: physicochemical; conditions: free base
[3] = Rattus norvegicus, iv, 0.25 h, read-out: % increase in aconitine to elicit VT/VF

| SMILES | change in vivo at 1 mg/kg [2, 3] [%] | % decrease in DBP ([2]; dose 1 mg/kg (i.v.)) [%] | further results |
| --- | --- | --- | --- |
| Cn1nc(-c2cccc(Cl)c2Cl)c(N)nc1=N [Example 1, 5(3)-Amino-6-(2,3-dichlorophenyl)-2,3(2,5)-dihydro-3(5)-imino-2-methyl-1,2,4-triazine] | 29 | 11 | IC50 [1]: 130 µM |
| Cn1nc(-c2cc(Cl)ccc2Cl)c(N)nc1=N [Example 2, 5(3)-Amino-6-(2,5-dichlorophenyl)-2,3(2,5)-dihydro-3(5)-imino-2-methyl-1,2,4-triazine] |  |  | change in vivo at 5 mg/kg [2, 3]: 440%; % decrease in DBP ([2]; dose 5 mg/kg (i.v.)): 10% |
| CCCCCOc1ccccc1-c1nn(C)c(=N)nc1N [Example 3, 5(3)-Amino-6-(2-n-pentyloxyphenyl)-2,3(2,5)-dihydro-3(5)-imino-2-methyl-1,2,4-triazine] | 144 | 8 | IC50 [1]: 5.9 µM |
| CC(C)n1nc(-c2cccc(Cl)c2Cl)c(N)nc1=N [Example 4, 5(3)-Amino-6-(2,3-dichlorophenyl)-2,3(2,5)-dihydro-3(5)-imino-2-isopropyl-1,2,4-triazine] | 490 | 13 | IC50 [1]: 2.2 µM; toxicity (in words) (beagle dogs): No marked toxicity was observed |
| Cn1nc(-c2ccccc2)c(N)nc1=N [Example 5, 5(3)-Amino-6-phenyl-2,3(2,5)-dihydro-3(5)-imino-2-methyl-1,2,4-triazine] |  |  | change in vivo at 5 mg/kg [2, 3]: 30%; % decrease in DBP ([2]; dose 5 mg/kg (i.v.)): 5% |
| Cn1nc(-c2c(F)cccc2Cl)c(N)nc1=N [Example 6, 5(3)-Amino-6-(2-chloro-6-fluorophenyl)-2,3(2,5)-dihydro-3(5)-imino-2-methyl-1,2,4-triazine] |  |  | change in vivo at 5 mg/kg [2, 3]: 149%; % decrease in DBP ([2]; dose 5 mg/kg (i.v.)): 1% |
| Cn1nc(-c2ccccc2I)c(N)nc1=N [Example 7, 5(3)-Amino-6-(2-iodophenyl)-2,3(2,5)-dihydro-3(5)-imino-2-methyl-1,2,4-triazine] |  |  | change in vivo at 5 mg/kg [2, 3]: 106%; % decrease in DBP ([2]; dose 5 mg/kg (i.v.)): 13% |
| COc1ccccc1-c1nn(C)c(=N)nc1N [Example 8, 5(3)-Amino-6-(2-methoxyphenyl)-2,3(2,5)-dihydro-3(5)-imino-2-methyl-1,2,4-triazine] |  |  | change in vivo at 10 mg/kg [2, 3]: 51%; % decrease in DBP ([2]; dose 10 mg/kg (i.v.)): 8% |
| Cn1nc(-c2ccccc2Cl)c(N)nc1=N [Example 9, 5(3)-Amino-6-(2-chlorophenyl)-2,3(2,5)-dihydro-3(5)-imino-2-methyl-1,2,4-triazine] | 32 | 4 |  |
| CCCn1nc(-c2cccc(Cl)c2Cl)c(N)nc1=N [Example 10, 5(3)-Amino-6-(2,3-dichlorophenyl)-2,3(2,5)-dihydro-3(5)-imino-2-n-propyl-1,2,4-triazine] | 225 | 3 |  |
| Cn1nc(-c2ccc(Cl)cc2Cl)c(N)nc1=N [Example 11, 5(3)-Amino-6-(2,4-dichlorophenyl)-2,3(2,5)-dihydro-3(5)-imino-2-methyl-1,2,4-triazine] | 33 | 7 |  |
| N=c1nc(N)c(-c2cccc(Cl)c2Cl)nn1Cc1ccccc1 [Example 12, 5(3)-Amino-6-(2,3-dichlorophenyl)-2,3(2,5)-dihydro-3(5)-imino-2-benzyl-1,2,4-triazine] | 14 | 5 |  |
| Cn1nc(-c2cc(Cl)cc(Cl)c2Cl)c(N)nc1=N [Example 13, 5(3)-Amino-6-(2,3,5-trichlorophenyl)-2,3(2,5)-dihydro-3(5)-imino-2-methyl-1,2,4-triazine] | 246 | 1 |  |
| CCCCCOc1ccc(-c2nn(C)c(=N)nc2N)cc1 [Example 14, 5(3)-Amino-6-(4-n-pentyloxyphenyl)-2,3(2,5)-dihydro-3(5)-imino-2-methyl-1,2,4-triazine] | 8 | 2 |  |
| CCCc1ccccc1-c1nn(C)c(=N)nc1N [Example 15, 5(3)-Amino-6-(2-n-propylphenyl)-2,3(2,5)-dihydro-3(5)-imino-2-methyl-1,2,4-triazine] | 12 | 5 |  |
| CCCOc1ccccc1-c1nn(C)c(=N)nc1N [Example 16, 5(3)-Amino-6-(2-n-propyloxyphenyl)-2,3(2,5)-dihydro-3(5)-imino-2-methyl-1,2,4-triazine] | 15 | 3 |  |
| CCCCCCCOc1ccccc1-c1nn(C)c(=N)nc1N [Example 17, 5(3)-Amino-6-(2-n-heptyloxyphenyl)-2,3(2,5)-dihydro-3(5)-imino-2-methyl-1,2,4-triazine] | 154 | 3 |  |
| CCCCCn1nc(-c2cccc(Cl)c2Cl)c(N)nc1=N [Example 18, 5(3)-Amino-6-(2,3-dichlorophenyl)-2,3(2,5)-dihydro-3(5)-imino-2-n-pentyl-1,2,4-triazine] | 46 | 1 | stability of the base (in words) (Stability of the base): unstable |
| CCN(CC)CC(=O)Nc1c(C)cccc1C [Lidocaine, reference compound] |  |  | change in vivo at 10 mg/kg [2, 3]: 44%; % decrease in DBP ([2]; dose 10 mg/kg (i.v.)): 1%; amount of aconitine required to elicit ventricular arrhythmia (in words) [2]: increased the amount of aconitine required to elicit the same ventricular arrhythmia |
| O=C1NC(=O)C(c2ccccc2)(c2ccccc2)N1 [Phenytoin, reference compound] |  |  | change in vivo at 10 mg/kg [2, 3]: 19%; % decrease in DBP ([2]; dose 10 mg/kg (i.v.)): 4%; amount of aconitine required to elicit ventricular arrhythmia (in words) [2]: increased the amount of aconitine required to elicit the same ventricular arrhythmia |
| CCN(CC)CCNC(=O)c1ccc(N)cc1 [Procainamide, reference compound] |  |  | change in vivo at 20 mg/kg [2, 3]: 11%; % decrease in DBP ([2]; dose 20 mg/kg (i.v.)): 22%; amount of aconitine required to elicit ventricular arrhythmia (in words) [2]: increased the amount of aconitine required to elicit the same ventricular arrhythmia |
| CC(C)NCC(O)COc1cccc2ccccc12 (centres unmarked) [Propranolol, reference compound] | 51 | 0 | amount of aconitine required to elicit ventricular arrhythmia (in words) [2]: increased the amount of aconitine required to elicit the same ventricular arrhythmia |
| C=C[C@H]1C[N@@]2CC[C@H]1C[C@@H]2[C@@H](O)c1ccnc2ccc(OC)cc12 [Quinidine, reference compound] |  |  | change in vivo at 10 mg/kg [2, 3]: 8%; % decrease in DBP ([2]; dose 10 mg/kg (i.v.)): 43%; amount of aconitine required to elicit ventricular arrhythmia (in words) [2]: increased the amount of aconitine required to elicit the same ventricular arrhythmia |
| COc1ccc(CCN(C)CCCC(C#N)(c2ccc(OC)c(OC)c2)C(C)C)cc1OC (centres unmarked) [Verapamil, reference compound] | 84 | 68 | amount of aconitine required to elicit ventricular arrhythmia (in words) [2]: increased the amount of aconitine required to elicit the same ventricular arrhythmia |
